Laboratory results reported in PubChem BioAssay AID652199 (Broad Institute, 2013).
Active and inactive are the calls of the source.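 Rule for the calls: active = half-maximal inhibitory concentration AC50 at or below 30 µM; inactive = the rest, including compounds with no fitted curve.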

Each molecule was assayed against Protein disulfide-isomerase (Homo sapiens) (UniProt P07237) (assay: PDI inhibitors, insulin aggregation turbidity, confirmation, biochemical, dry powder samples, set 3 (AID 652199)). Details: absorbance 650 nm, 90 min.
Sequence of Protein disulfide-isomerase (Homo sapiens) (P07237 whole entry, looked up): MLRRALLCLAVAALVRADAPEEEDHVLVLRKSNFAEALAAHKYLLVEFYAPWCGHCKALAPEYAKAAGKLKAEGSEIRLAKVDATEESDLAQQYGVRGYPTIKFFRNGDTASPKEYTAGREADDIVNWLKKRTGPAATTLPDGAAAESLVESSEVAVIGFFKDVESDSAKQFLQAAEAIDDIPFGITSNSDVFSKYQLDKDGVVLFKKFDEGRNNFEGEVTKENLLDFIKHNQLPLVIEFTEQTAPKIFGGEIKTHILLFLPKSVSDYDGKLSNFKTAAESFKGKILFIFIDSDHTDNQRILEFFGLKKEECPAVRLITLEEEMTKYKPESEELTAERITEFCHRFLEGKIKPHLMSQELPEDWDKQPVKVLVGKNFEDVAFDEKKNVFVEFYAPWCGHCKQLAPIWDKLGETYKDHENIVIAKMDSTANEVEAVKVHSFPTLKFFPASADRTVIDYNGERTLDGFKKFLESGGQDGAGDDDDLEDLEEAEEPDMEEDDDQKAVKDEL

Compound | AC50
CC(C)(C)OC(=O)C1(CCOc2ccccc2)CCN(Cc2ccc(O)c(Cl)c2)CC1 | 0.7 µM
CC(C)OC(=O)C1(CCOc2ccccc2)CCN(Cc2ccc(O)c(Cl)c2)CC1 | 0.7 µM
CCOC(=O)C1(CCOc2ccccc2)CCN(C(=O)c2ccc(O)c(Cl)c2)CC1 | 1.5 µM
CCOC(=O)C1(CCOc2ccccc2)CCN(Cc2ccc(O)cc2)CC1 | 20 µM
CCN(C)C(=O)C1(CCOc2ccccc2)CCN(Cc2ccc(O)c(Cl)c2)CC1 | 3 µM
C/C1=C\C[C@H](OC(=O)c2ccc(O)cc2)/C(C)=C/[C@@H](O)C(C)(C)CCC1 | 5 µM
CCOC(=O)c1c(CN2CCN(CCO)CC2)n(-c2ccccc2)c2cc(Br)c(O)cc12 | 3 µM
O=C(Nc1ccccc1)C1(CCOc2ccccc2)CCN(Cc2ccc(O)c(Cl)c2)CC1 | 30 µM
CCOC(=O)C1(CCOc2ccccc2)CCN(Cc2ccc(OC)c(Cl)c2)CC1 | > 30 µM (inactive)
CCOC(=O)C1(CCOc2ccccc2)CCN(Cc2ccc(O)c(Cl)c2)CC1 | 0.4 µM
O=C(NC1CCCC1)C1(CCOc2ccccc2)CCN(Cc2ccc(O)c(Cl)c2)CC1 | 3 µM
C/C1=C\[C@@H](O)C(C)(C)CCCC2(C)OC2C[C@@H]1OC(=O)c1ccc(O)cc1 (some centres not stated) | 1.5 µM
